Source: PubChem BioAssay AID248 (DTP/NCI, 2004)
Toxic doses and inconclusive results are not listed. Rule as the data show it: active = T/C of 150% or more; inactive = T/C below 125%.

Test system: L1210 leukemia ip in BDF1 mice, survival T/C
Experiment: NCI In Vivo Anticancer Drug Screen. Data for tumor model L1210 Leukemia (intraperitoneal) in B6D2F1 (BDF1) mice
Conditions: higher = longer survival
Outline: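 Value reflects the ratio of survival in compound-treated mice to survival in vehicle-treated controls, with both groups carrying the same transplanted tumor.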

[1] = endpoint: mean survival time, dose: 100.0 mg/kg/injection, schedule: Q01DX009 (ip), vehicle: saline with Tween-80
[2] = endpoint: mean survival time, dose: 200.0 mg/kg/injection, schedule: Q01DX009 (ip), vehicle: saline with Tween-80
[3] = endpoint: mean survival time, dose: 400.0 mg/kg/injection, schedule: Q01DX009 (ip), vehicle: saline with Tween-80
[4] = endpoint: mean survival time, dose: 100.0 mg/kg/injection, schedule: Q04DX003 (ip), vehicle: saline
[5] = endpoint: mean survival time, dose: 100.0 mg/kg/injection, schedule: Q01DX001 (ip), vehicle: saline
[6] = endpoint: mean survival time, dose: 200.0 mg/kg/injection, schedule: Q01DX001 (ip), vehicle: saline
[7] = endpoint: mean survival time, dose: 400.0 mg/kg/injection, schedule: Q01DX001 (ip), vehicle: saline
[8] = endpoint: mean survival time, dose: 200.0 mg/kg/injection, schedule: Q04DX003 (ip), vehicle: Klucel (hydroxypropylcellulose) (HPC)
[9] = endpoint: mean survival time, dose: 50.0 mg/kg/injection, schedule: Q01DX009 (ip), vehicle: saline
[10] = endpoint: mean survival time, dose: 100.0 mg/kg/injection, schedule: Q01DX009 (ip), vehicle: saline
[11] = endpoint: mean survival time, dose: 200.0 mg/kg/injection, schedule: Q01DX009 (ip), vehicle: saline
[12] = endpoint: mean survival time, dose: 50.0 mg/kg/injection, schedule: Q01DX009 (ip), vehicle: saline with Tween-80
[13] = endpoint: mean survival time, dose: 100.0 mg/kg/injection, schedule: Q01DX009 (ip), vehicle: Klucel (hydroxypropylcellulose) (HPC)
[14] = endpoint: mean survival time, dose: 200.0 mg/kg/injection, schedule: Q01DX009 (ip), vehicle: Klucel (hydroxypropylcellulose) (HPC)
[15] = endpoint: mean survival time, dose: 100.0 mg/kg/injection, schedule: Q04DX003 (ip), vehicle: saline with Tween-80
[16] = endpoint: mean survival time, dose: 200.0 mg/kg/injection, schedule: Q04DX003 (ip), vehicle: saline with Tween-80
[17] = endpoint: mean survival time, dose: 100.0 mg/kg/injection, schedule: Q04DX002 (ip), vehicle: Klucel (hydroxypropylcellulose) (HPC)
[18] = endpoint: mean survival time, dose: 200.0 mg/kg/injection, schedule: Q04DX002 (ip), vehicle: Klucel (hydroxypropylcellulose) (HPC)

Measured: T/C

O=C1C=CC(=Nc2cc(Cl)c(O)c(Cl)c2)C(Cl)=C1
inactive: endpoint: mean survival time, dose: 12.5 mg/kg/injection, schedule: Q01DX009 (ip), vehicle: Klucel (hydroxypropylcellulose) (HPC) 96 % of control | endpoint: mean survival time, dose: 25.0 mg/kg/injection, schedule: Q01DX009 (ip), vehicle: Klucel (hydroxypropylcellulose) (HPC) 96 % of control | endpoint: mean survival time, dose: 50.0 mg/kg/injection, schedule: Q01DX009 (ip), vehicle: Klucel (hydroxypropylcellulose) (HPC) 92 % of control

CCN(CCOC(=O)Nc1ccccc1F)c1ccccc1
inactive: [1] 98 % of control | [2] 115 % of control | [3] 112 % of control

COc1ccc(N=Cc2ccccc2O)cc1.[Co]
inactive: endpoint: mean survival time, dose: 100.0 mg/kg/injection, schedule: Q01DX001 (ip), vehicle: other 96 % of control | endpoint: mean survival time, dose: 200.0 mg/kg/injection, schedule: Q01DX001 (ip), vehicle: other 102 % of control | endpoint: mean survival time, dose: 400.0 mg/kg/injection, schedule: Q01DX001 (ip), vehicle: other 105 % of control

c1ccc(-c2c[nH]c(-c3ccccc3)c2-c2ccccc2)cc1
inactive: endpoint: mean survival time, dose: 75.0 mg/kg/injection, schedule: Q01DX001 (ip), vehicle: carboxymethylcellulose (CMC) 93 % of control | endpoint: mean survival time, dose: 150.0 mg/kg/injection, schedule: Q01DX001 (ip), vehicle: carboxymethylcellulose (CMC) 93 % of control | endpoint: mean survival time, dose: 300.0 mg/kg/injection, schedule: Q01DX001 (ip), vehicle: carboxymethylcellulose (CMC) 93 % of control

C=CCN1CCC(C(=O)OC)(c2ccccc2)CC1
inactive: [4] 96 % of control | endpoint: mean survival time, dose: 200.0 mg/kg/injection, schedule: Q04DX003 (ip), vehicle: saline 103 % of control

[B-][N+]12CC[N+]([B-])(CC1)CC2
inactive: endpoint: mean survival time, dose: 0.06 mg/kg/injection, schedule: Q01DX009 (ip), vehicle: saline sonified 98 % of control | endpoint: mean survival time, dose: 0.06 mg/kg/injection, schedule: Q04DX003 (ip), vehicle: saline sonified 113 % of control | endpoint: mean survival time, dose: 0.13 mg/kg/injection, schedule: Q01DX009 (ip), vehicle: saline sonified 96 % of control | endpoint: mean survival time, dose: 0.13 mg/kg/injection, schedule: Q04DX003 (ip), vehicle: saline sonified 96 % of control | endpoint: mean survival time, dose: 0.25 mg/kg/injection, schedule: Q01DX009 (ip), vehicle: saline sonified 100 % of control | endpoint: mean survival time, dose: 0.25 mg/kg/injection, schedule: Q04DX003 (ip), vehicle: saline sonified 103 % of control

C1=COC(C2NCCCN2)CC1 (stereo unspecified)
inactive: [5] 102 % of control | [6] 111 % of control | [7] 106 % of control

O=C(CC(=O)c1ccccc1)Nc1ccc([N+](=O)[O-])cn1
inactive: endpoint: mean survival time, dose: 50.0 mg/kg/injection, schedule: Q04DX003 (ip), vehicle: Klucel (hydroxypropylcellulose) (HPC) 91 % of control | endpoint: mean survival time, dose: 100.0 mg/kg/injection, schedule: Q01DX001 (ip), vehicle: Klucel (hydroxypropylcellulose) (HPC) 103 % of control | endpoint: mean survival time, dose: 200.0 mg/kg/injection, schedule: Q01DX001 (ip), vehicle: Klucel (hydroxypropylcellulose) (HPC) 105 % of control | [8] 93 % of control | endpoint: mean survival time, dose: 400.0 mg/kg/injection, schedule: Q01DX001 (ip), vehicle: Klucel (hydroxypropylcellulose) (HPC) 98 % of control

OC1CN(C2CCCCC2)C1
inactive: [4] 98 % of control

Cc1cc(C)c(S(=O)(=O)O)cc1C
inactive: [9] 92 % of control | [10] 92 % of control | [4] 98 % of control | [11] 88 % of control

Cc1ncc(CO)c2c1OC(C)(C)OC2
inactive: endpoint: mean survival time, dose: 50.0 mg/kg/injection, schedule: Q01DX001 (ip), vehicle: saline 97 % of control | [5] 100 % of control | [6] 103 % of control | [7] 100 % of control

O=C(c1ccccc1)C(Cl)C(O)(C(F)(F)F)C(F)(F)F (stereo unspecified)
inactive: [12] 96 % of control | [1] 92 % of control | [2] 108 % of control

COc1cccc(Cc2c[nH]c(=S)[nH]c2=O)c1
inactive: [13] 108 % of control | [14] 96 % of control

CC1(C)COC(C)(C)C(=O)O1
inactive: endpoint: mean survival time, dose: 100.0 mg/kg/injection, schedule: Q04DX003 (ip), vehicle: Klucel (hydroxypropylcellulose) (HPC) 106 % of control | [8] 97 % of control

CCN(CC)CCNc1ccc(CO)c2oc3ccccc3c(=O)c12
inactive: [9] 99 % of control | [10] 96 % of control | [11] 99 % of control

CC1=C(/C=C/C(C)=C/C=C/C(C)=C/C(=O)O)C(C)(C)CCC1
inactive: endpoint: mean survival time, dose: 88.0 mg/kg/injection, schedule: Q01DX009 (ip), vehicle: steriod suspending solution 89 % of control | [1] 100 % of control | endpoint: mean survival time, dose: 200.0 mg/kg/injection, schedule: Q01DX001 (sc), vehicle: steriod suspending solution 104 % of control | [2] 94 % of control | endpoint: mean survival time, dose: 400.0 mg/kg/injection, schedule: Q01DX001 (sc), vehicle: steriod suspending solution 98 % of control | [3] 91 % of control | endpoint: median survival time, dose: 25.0 mg/kg/injection, schedule: Q01DX009 (ip), vehicle: other 111 % of control | endpoint: median survival time, dose: 50.0 mg/kg/injection, schedule: Q01DX009 (ip), vehicle: other 100 % of control | endpoint: median survival time, dose: 100.0 mg/kg/injection, schedule: Q01DX009 (ip), vehicle: other 100 % of control | endpoint: median survival time, dose: 200.0 mg/kg/injection, schedule: Q01DX009 (ip), vehicle: other 100 % of control

BrC(Br)c1ccc(C(Br)Br)cc1
inactive: [15] 94 % of control | [16] 100 % of control | endpoint: mean survival time, dose: 400.0 mg/kg/injection, schedule: Q04DX003 (ip), vehicle: saline with Tween-80 94 % of control

C(=NCCN=Cc1c[nH]c2ccccc12)c1c[nH]c2ccccc12
inactive: [1] 100 % of control | [15] 89 % of control | [2] 102 % of control | [16] 96 % of control

NC(C(=O)c1ccccc1)c1ccccc1.[Cl][Sn][Cl] (stereo unspecified)
inactive: endpoint: mean survival time, dose: 75.0 mg/kg/injection, schedule: Q01DX001 (ip), vehicle: saline 102 % of control | endpoint: mean survival time, dose: 150.0 mg/kg/injection, schedule: Q01DX001 (ip), vehicle: saline 117 % of control

CN1CCN(Cc2nc3cccc4c3c([n+]2[O-])-c2ccccc2-4)CC1
inactive: endpoint: mean survival time, dose: 12.5 mg/kg/injection, schedule: Q01DX009 (ip), vehicle: saline with Tween-80 101 % of control | endpoint: mean survival time, dose: 25.0 mg/kg/injection, schedule: Q01DX009 (ip), vehicle: saline with Tween-80 105 % of control | [12] 103 % of control | [1] 114 % of control | [2] 123 % of control

CC1CCCC(CN=Cc2ccccc2O)[N-]1.CC1CCCC(CN=Cc2ccccc2O)[N-]1.[Ni+2] (stereo unspecified)
inactive: [15] 98 % of control

CC(C)(C)/C(=N\[N+](C)(C)C)c1ccccc1
inactive: [4] 98 % of control

O=C(CC1=CCCCC1)c1ccccc1
inactive: [13] 103 % of control | [14] 100 % of control | endpoint: mean survival time, dose: 400.0 mg/kg/injection, schedule: Q01DX009 (ip), vehicle: Klucel (hydroxypropylcellulose) (HPC) 97 % of control

O=C(O)c1ccccc1C(=O)Nc1cccc2ccccc12
inactive: [17] 88 % of control | [18] 104 % of control

CCCCCCCCCCCCCCCCOc1ccc(F)cc1
inactive: [17] 103 % of control | [18] 118 % of control | endpoint: mean survival time, dose: 400.0 mg/kg/injection, schedule: Q04DX002 (ip), vehicle: Klucel (hydroxypropylcellulose) (HPC) 107 % of control
